Converted amounts (≈) assume the structure as drawn. Positions of bridges follow the written chain, without caps; N, C: chain ends. Non-standard residues stand in square brackets, D forms with d. Residues, ends and D or L forms follow the SMILES beside them. Chains are numbered I, II in the order given. βAla = NCCC(=O)O
Experiments:
rats = experiment: Respiratory function in rats (whole body plethysmography); type: in vivo, rat
Procedure: The possible side-effects of SET-M33 on respiratory function were evaluated after administration of the peptide as a single intravenous bolus at doses of 5, 9 and 15 mg/kg with vehicle (eight animals/group). Respiratory rate, tidal volume and minute volume were assessed. As in the case of neurological toxicity and the 4-week toxicity study, again the dose levels were selected on the basis DRF (above). Baclofen, a muscle relaxer and antispasmodic used to treat muscle pain, spasms and stiffness in people with multiple sclerosis or spinal cord injury or disease, was used as positive control. It was administered as a single intravenous injection at a dose of 15 mg/kg.
Whole body, bias flow plethysmography equipment was used[51]. Respiratory parameters (respiratory rate, tidal volume and minute volume) were derived from the changes in pressure associated with the warming and humidification of the air breathed in by the animal. This was monitored by specific probes located in the plethysmograph chambers. Bias flow (room air) was set at approximately 2.5 L/min. On a day prior to the first day of dosing, all animals were habituated to the plethysmographs for approximately 2 h. The study was run over 4 days and 10 animals (two from each group) were examined each day. On the day of dosing, the animals were placed in the plethysmographs for pre-dose recording (session 1) of respiratory parameters for 60 min. Groups of 8 rats were then removed from the chambers and dosed by intravenous bolus injection with vehicle, SET-M33 or positive control. Immediately after dosing, the rats were placed in the whole body plethysmographs, where they could move about freely, to continuously record respiratory parameters for 4 h post-dose (undisturbed recording). Immediately after the last post-dose recording, the animals were killed humanely by a rising concentration of carbon dioxide. Death was confirmed by dislocation of the neck. Respiratory parameters were reported at the following time points: 0, 30, 60, 90, 120, 150, 180, 210 and 240 min. Time 0 coincided with the mean value of the last 20 min of data recorded in the 60-min pre-dose period. All other time points were the mean of 10-min recordings (an average of every 10 breaths) around each time point. Each post-dose time point was analysed separately by analysis of covariance. Factors in the model were group and day of data collection, with pre-dose values as covariate.

in vivo = details: dog
Procedure: Concentrations of SET-M33 in dog plasma samples and the main toxicokinetic parameters were determined. The exposure parameters (AUCt and Cmax) were compared to evaluate dose-dependency, accumulation ratio and sex-related differences. […] Mean SET-M33 plasma levels increased in parallel in males and females. Mean time to maximum SET-M33 concentration (tmax) was after the end of infusion for both periods (days 1 and 7) and sexes, i.e. 30 min post-dose, coherently with intravenous administration. On day 1 and 7, mean AUCt and Cmax values for the low vs. high dose were close to the theoretical ratio of 2.
Blood samples were taken by direct venepuncture of the jugular vein on days 1 and 7 to determine plasma levels of SET-M33. Sampling times were as follows: Day 1: at 0, 5, 15, 30, 60 and 180 min. Day 7: at 0, 5, 15, 30, 60, 180 min and 24 h after administration. Control animals were only bled once on days 1 and 7 of treatment, 1 h after administration. Blood samples were collected into lithium heparin test tubes and kept in an ice bath until centrifuging (1600 g for 10 min at 2–8 °C). The plasma obtained from each sample was transferred to a fresh polypropylenes test tubes, immediately frozen in dry ice and stored at − 20 °C ± 5.

K. pneumoniae = details: cited from earlier work
[1] = Toxicokinetics in rats, 4 weeks daily iv slow bolus; type: in vivo, rat; details: for AUC(0-t) / Cmax / tmax: iv
Procedure: SET-M33 was administered intravenously as a slow bolus to Sprague Dawley rats once daily for 4 weeks at 0 (vehicle only), 5, 9 and 15 mg/kg/day (control group 3 animals/sex, treated groups 6 animals/sex). Blood samples were taken on day 1 and day 28. […] Mean plasma SET-M33 exposure increased in parallel with dose in males and females. […] Mean time to maximum plasma SET-M33 concentration (tmax) was 5 min post-dose for both times and sexes as expected for intravenous bolus administration. […] On day 28, female intermediate dose AUC0-t ratio was 1.7 times the theoretical ratio.
Blood samples were drawn from the retro-orbital sinus under light isoflurane anaesthesia for determination of plasma SET-M33 levels. The samples were taken on days 1 and 28 of treatment at the following times: control group: pre-dose and 30 min; 5, 9 and 15 mg/kg/day-group: pre-dose, 5, 15, 30, 60 min and 24 h after administration. Blood samples were collected into polypropylene test tubes containing lithium heparin anticoagulant and kept at room temperature for no longer than 60 min until centrifuging (1600 g for 10 min at 2–8 °C). The plasma obtained from each sample was transferred to a fresh polypropylene test tubes, immediately frozen in dry ice and stored at − 20 °C ± 5. Plasma concentrations of SET-M33 were measured by a previously validated LC–MS/MS method. Toxicokinetic parameters were determined for mean plasma concentrations at each dose level and time point, according to the validated method and with WinNonlin software, version 6.3, in the Phoenix Suite version 1.3 (Pharsight Corporation, Mountain View, CA, USA).

[2] = female, Sprague Dawley, rat, in vivo, 5 mg/kg/day
[3] = male, Sprague Dawley, rat, in vivo, 5 mg/kg/day
[4] = male, Sprague Dawley, rat, in vivo, 9 mg/kg/day
[5] = male, Sprague Dawley, rat, in vivo, 15 mg/kg/day

CC[C@H](C)[C@H](NC(=O)[C@H](CCCCN)NC(=O)[C@@H](N)CCCCN)C(=O)N[C@@H](CCCNC(=N)N)C(=O)N[C@H](C(=O)N[C@@H](CCCNC(=N)N)C(=O)N[C@@H](CC(C)C)C(=O)N[C@@H](CO)C(=O)N[C@@H](C)C(=O)NCCCC[C@H](NC(=O)[C@H](C)NC(=O)[C@H](CO)NC(=O)[C@H](CC(C)C)NC(=O)[C@H](CCCNC(=N)N)NC(=O)[C@@H](NC(=O)[C@H](CCCNC(=N)N)NC(=O)[C@@H](NC(=O)[C@H](CCCCN)NC(=O)[C@@H](N)CCCCN)[C@@H](C)CC)C(C)C)C(=O)NCCCC[C@H](NC(=O)[C@H](CCCCNC(=O)[C@H](C)NC(=O)[C@H](CO)NC(=O)[C@H](CC(C)C)NC(=O)[C@H](CCCNC(=N)N)NC(=O)[C@@H](NC(=O)[C@H](CCCNC(=N)N)NC(=O)[C@@H](NC(=O)[C@H](CCCCN)NC(=O)[C@@H](N)CCCCN)[C@@H](C)CC)C(C)C)NC(=O)[C@H](C)NC(=O)[C@H](CO)NC(=O)[C@H](CC(C)C)NC(=O)[C@H](CCCNC(=N)N)NC(=O)[C@@H](NC(=O)[C@H](CCCNC(=N)N)NC(=O)[C@@H](NC(=O)[C@H](CCCCN)NC(=O)[C@@H](N)CCCCN)[C@@H](C)CC)C(C)C)C(=O)NCCC(=O)O)C(C)C [SET-M33] (I: H-KKIRVRLSAKK[βAla]-OH / II: H-KKIRVRLSAK / III: H-KKIRVRLSA / IV: H-KKIRVRLSA; amide I:10-IV:C, I:11-II:C, II:10-III:C (inferred); N-terminus and C-terminus assumed)
minute volume vs vehicle (rats; rats, 15 mg/kg single iv bolus, 30 min post-dose, subsided by 60 min): statistically significant increase | effects on respiratory rate, tidal volume or minute volume (rats; rats, 5, 9 and 15 mg/kg single iv bolus, 4 h post-dose, n=8/group): did not produce any statistically significant adverse effects | tmax (in vivo; both sexes, beagle, iv): 30 min | quantifiable plasma concentrations until, after the start of infusion (in vivo; 8 mg/kg/day): up to 24.5 h | MIC50 (K. pneumoniae): 1.4 µM (≈ 6.56 µg/mL) | MIC90 (K. pneumoniae): 2.8 µM (≈ 13.1 µg/mL) | AUC(0-t) [1, 2]: 1218 ng·h/mL | Cmax [1, 2]: 4103 ng/mL | AUC(0-t) ([1]; female, Sprague Dawley, rat, in vivo, 5 mg/kg/day, AUC0-t): 663 ng·h/mL | Cmax ([1]; female, Sprague Dawley, rat, in vivo, 5 mg/kg/day, Cmax): 2110 ng/mL | AUC(0-t) [1, 3]: 938 ng·h/mL | Cmax [1, 3]: 3017 ng/mL | tmax [1, 3]: 5 min | AUC(0-t) ([1]; male, Sprague Dawley, rat, in vivo, 5 mg/kg/day, AUC0-t): 692 ng·h/mL | Cmax ([1]; male, Sprague Dawley, rat, in vivo, 5 mg/kg/day, Cmax): 2230 ng/mL | AUC(0-t) [1, 4]: 1819 ng·h/mL | Cmax [1, 4]: 5890 ng/mL | tmax [1, 4]: 5 min | AUC(0-t) ([1]; male, Sprague Dawley, rat, in vivo, 9 mg/kg/day, AUC0-t): 1430 ng·h/mL | Cmax ([1]; male, Sprague Dawley, rat, in vivo, 9 mg/kg/day, Cmax): 4560 ng/mL | AUC(0-t) [1, 5]: 2734 ng·h/mL | Cmax [1, 5]: 8170 ng/mL | tmax [1, 5]: 5 min | AUC(0-t) ([1]; male, Sprague Dawley, rat, in vivo, 15 mg/kg/day, AUC0-t): 2240 ng·h/mL | Cmax ([1]; male, Sprague Dawley, rat, in vivo, 15 mg/kg/day, Cmax): 6040 ng/mL | mean tmax ([1]; rat, in vivo): 5 min | quantifiable plasma concentrations until, post-dose ([1]; rat, in vivo): 1 h | intermediate dose AUC0-t ratio relative to the theoretical ratio ([1]; rat, in vivo, 9 mg/kg/day): 1.7 times | tmax ([1]; rat, in vivo, 5 mg/kg/day): 5 min | tmax ([1]; rat, in vivo, 9 mg/kg/day): 5 min | tmax ([1]; rat, in vivo, 15 mg/kg/day): 5 min | mean AUC0-t ratio, low vs. intermediate dose (theoretical ratio 1.8) ([1]; rats, 5 vs 9 mg/kg/day, day 1): 2 | mean Cmax ratio, low vs. intermediate dose (theoretical ratio 1.8) ([1]; rats, 5 vs 9 mg/kg/day, day 1): 1.7–2 | mean AUC0-t ratio, low vs. high dose (theoretical ratio 3) ([1]; rats, 5 vs 15 mg/kg/day, day 1): 2.9–3.2 | mean Cmax ratio, low vs. high dose (theoretical ratio 3) ([1]; rats, 5 vs 15 mg/kg/day, day 1): 2.7

— article PMC9652379, “Safety evaluations of a synthetic antimicrobial peptide administered intravenously in rats and dogs” (Scientific Reports, 2022)
